According to patent US20240180900A1, “COMPOUNDS AND METHODS FOR THE TARGETED DEGRADATION OF ANDROGEN RECEPTOR” (Arvinas Operations, Inc., priority 2022, published 2024):

Key:
prostate = assay: 10-day prostate involution study in rats; format: in vivo, rat; conditions: for Mean (±SEM) prostate weights: 10 days, intact rats
Description: Enzalutamide and Compound A were orally administered once daily at the indicated doses. After 10 days of treatment, the prostate tissue from each rat was isolated and weighed. Treatment groups (n=5 per group) were compared by one way ANOVA. Note: ns: not significant, *: p<0.05, **: p≤0.01.
To substantiate the on-target mechanism of Compound A, a prostate involution study was conducted in rats. […] Twenty-four hours after the last dose, the rats were euthanized, and the prostate organs were isolated and weighed.

AR [1] = target: T1, AR (Homo sapiens, UniProt P10275); assay: selectivity screening panel: AR binding; conditions: 1 μM
T1 sequence (P10275 1-920): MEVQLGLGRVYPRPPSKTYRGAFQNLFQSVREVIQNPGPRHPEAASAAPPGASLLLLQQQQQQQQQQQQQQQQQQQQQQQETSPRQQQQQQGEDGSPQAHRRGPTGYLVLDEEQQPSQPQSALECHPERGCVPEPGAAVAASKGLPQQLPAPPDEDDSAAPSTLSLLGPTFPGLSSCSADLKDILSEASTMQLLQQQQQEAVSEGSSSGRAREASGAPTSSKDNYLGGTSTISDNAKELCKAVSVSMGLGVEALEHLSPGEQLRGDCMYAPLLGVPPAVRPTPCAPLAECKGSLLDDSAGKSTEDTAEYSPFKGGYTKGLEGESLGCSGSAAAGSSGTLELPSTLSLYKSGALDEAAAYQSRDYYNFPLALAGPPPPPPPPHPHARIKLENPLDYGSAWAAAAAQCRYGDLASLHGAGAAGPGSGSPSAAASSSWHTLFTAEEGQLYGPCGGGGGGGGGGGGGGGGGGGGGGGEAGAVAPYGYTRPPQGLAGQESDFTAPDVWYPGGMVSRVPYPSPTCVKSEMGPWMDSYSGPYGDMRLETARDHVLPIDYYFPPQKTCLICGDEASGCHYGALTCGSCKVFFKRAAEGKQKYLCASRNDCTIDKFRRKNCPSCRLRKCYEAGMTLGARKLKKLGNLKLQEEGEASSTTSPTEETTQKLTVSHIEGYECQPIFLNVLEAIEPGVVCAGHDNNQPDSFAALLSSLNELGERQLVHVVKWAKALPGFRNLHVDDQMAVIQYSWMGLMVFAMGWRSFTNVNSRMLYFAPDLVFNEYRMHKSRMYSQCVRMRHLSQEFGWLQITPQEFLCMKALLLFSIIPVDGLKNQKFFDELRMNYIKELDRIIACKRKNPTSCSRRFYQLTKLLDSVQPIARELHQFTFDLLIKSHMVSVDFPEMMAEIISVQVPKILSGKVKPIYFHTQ
Description: Compound A was tested at 1 μM in a screening study to assess the interaction of Compound A with a panel of 44 targets, including receptors, ion channels, transporters, and enzymes. Any effect greater than 50% of the positive control for a target was considered to represent an interaction of the test compound with the target.

AR [2] = target: T1, AR; assay: poly-ubiquitination assay; format: cell-based; conditions: with Compound A treatment
VCaP cells = assay: apoptosis in VCaP cells (CaspaseGlo); format: cell-based; conditions: Homo sapiens, CSS + 0.1 nM R1881, 72 hours, read-out: EC50, inducing apoptosis
Description: Intracellular prostate specific antigen (PSA) levels were determined using a PSA enzyme-linked immunosorbent assay (ELISA). […] The cell proliferation was determined using the CellTiter-Glo® assay. […] The CaspaseGlo® assay was carried out to measure the level of apoptosis in cells.
To evaluate the pharmacological effect of Compound A in vitro, PSA, cell proliferation, and apoptosis assays were carried out in VCaP cells.

AR T878A/D891H = target: T2, AR T878A/D891H (Homo sapiens, UniProt P10275, D891H/T878A); assay: AR degradation in T-Rex-293 cell line, T878A/D891H; format: cell-based; conditions: T-Rex-293, ELISA
T2 construct: expressed in transfected cells; host or cells: T-REx-293
T2 sequence (P10275 whole entry T878A/D891H): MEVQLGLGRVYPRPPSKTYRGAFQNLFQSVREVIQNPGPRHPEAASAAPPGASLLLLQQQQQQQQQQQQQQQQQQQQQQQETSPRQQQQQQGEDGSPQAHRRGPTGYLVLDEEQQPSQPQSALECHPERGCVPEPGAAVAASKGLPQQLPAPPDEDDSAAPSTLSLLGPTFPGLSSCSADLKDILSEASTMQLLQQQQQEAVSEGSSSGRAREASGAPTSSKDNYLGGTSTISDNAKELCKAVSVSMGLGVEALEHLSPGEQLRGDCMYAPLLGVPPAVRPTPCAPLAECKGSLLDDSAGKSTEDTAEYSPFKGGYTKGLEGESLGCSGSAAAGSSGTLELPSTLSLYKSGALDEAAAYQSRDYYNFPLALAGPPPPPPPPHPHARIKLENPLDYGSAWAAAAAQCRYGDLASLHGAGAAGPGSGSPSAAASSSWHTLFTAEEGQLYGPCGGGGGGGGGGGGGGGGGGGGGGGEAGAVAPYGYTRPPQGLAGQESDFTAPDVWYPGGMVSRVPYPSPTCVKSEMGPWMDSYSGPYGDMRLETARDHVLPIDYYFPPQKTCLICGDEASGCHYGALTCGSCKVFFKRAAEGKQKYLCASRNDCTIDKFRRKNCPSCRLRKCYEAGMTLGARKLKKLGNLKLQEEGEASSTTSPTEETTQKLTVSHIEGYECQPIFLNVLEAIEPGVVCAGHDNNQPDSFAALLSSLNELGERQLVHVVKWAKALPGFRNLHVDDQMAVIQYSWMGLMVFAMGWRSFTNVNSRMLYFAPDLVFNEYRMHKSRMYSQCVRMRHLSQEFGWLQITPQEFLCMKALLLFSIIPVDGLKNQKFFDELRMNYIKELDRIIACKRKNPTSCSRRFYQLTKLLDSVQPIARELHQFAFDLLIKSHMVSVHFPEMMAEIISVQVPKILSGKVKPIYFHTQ
Description: (§1) FIG. 3 is a graph showing Compound A's ability to degrade clinically relevant mutated forms AR.
(§2) To assess the ability of Compound A to degrade variants of the AR, vectors expressing wild-type AR or mutant AR proteins harboring clinically observed mutations in the ligand binding domain (13 with single amino acid changes or 4 with 2 amino acid changes) (Azad A. A., Volik S. V., Wyatt A. W., et al. Androgen receptor gene aberrations in circulating cell-free DNA: biomarkers of therapeutic resistance in castration-resistant prostate cancer. Clin Cancer Res. 2015; 21:2315-2324; Robinson D., Van Allen E. M., Wu Y. M., et al. Integrative clinical genomics of advanced prostate cancer. Cell. 2015; 161:1215-1228; Ledet E. M., Lilly M. B., Sonpavde G., et al. Comprehensive analysis of AR alterations in circulating tumor DNA from patients with advanced prostate cancer. Oncologist.

AR M750V = target: T3, AR M750V (Homo sapiens, UniProt P10275, M750V); assay: AR degradation in T-Rex-293 cell line, M750V; format: cell-based; conditions: T-Rex-293, ELISA
T3 construct: expressed in transfected cells; host or cells: T-REx-293
T3 sequence (P10275 whole entry M750V): as the sequence (P10275 whole entry T878A/D891H) above, with M750V, A878T, H891D counted along it
Description: as §1, §2

Structure (SMILES): COc1cc(O[C@H]2C(C)(C)[C@H](NC(=O)c3ccc(N4CCC(CN5CCN(c6ccc(C(=O)N[C@H]7CCC(=O)NC7=O)c(F)c6)CC5)CC4)cc3)C2(C)C)ccc1C#N [Compound A, 4-(4-((1-(4-(((1R,3R)-3-(4-cyano-3-methoxyphenoxy)-2,2,4,4-tetramethylcyclobutyl)carbamoyl)phenyl)piperidin-4-yl)methyl)piperazin-1-yl)-N—((S)-2,6-dioxopiperidin-3-yl)-2-fluorobenzamide]
- Mean (±SEM) prostate weights (prostate; 5 mg/kg/day orally): 673+105 mg
- Mean (±SEM) prostate weights (prostate; 15 mg/kg/day orally): 384 ± 47 mg
- Mean (±SEM) prostate weights (prostate; 45 mg/kg/day orally): 422 ± 56 mg
- prostate weight reduction compared with enzalutamide (prostate; all doses tested (5, 15, 45 mg/kg/day)): reduced prostate weights to a greater degree at all doses tested
- binding to AR, % of positive control testosterone (AR [1]): 98.6%
- ubiquitination of the AR (AR [2]): significantly increased
- EC50 (VCaP cells): 8 nM
- DC50 (AR T878A/D891H): 3.4 nM
- DC50 (AR M750V): 1.4 nM
